Source: DBAASP
Converted amounts (≈) assume the structure as drawn. “And” between values parts separate entries of the source, which are not always exact repeats. Equal entries are not always repeated.

What was measured:
Experiment in all cases: ≥ marks a high value that may be exact or a test limit, other limits are often not marked, values filed in µg/mL are converted to µM
[1] = tested on: Bacillus cereus ATCC 11778
[2] = tested on: Klebsiella pneumoniae CCRC 10694
[3] = tested on: Candida albicans ATCC 10231
[4] = tested on: Streptococcus alactolyticus
Salmonella enterica = tested on: Salmonella enterica
Escherichia coli JM109 = tested on: Escherichia coli JM109
Citrobacter koseri = tested on: Citrobacter koseri
[5] = tested on: Staphylococcus aureus CCRC 12652
[6] = tested on: Vibrio parahaemolyticus CCRC 10806
Escherichia coli PFH13 = tested on: Escherichia coli PFH13
[7] = tested on: Listeria monocytogenes ATCC 15313
Escherichia coli PFH12 = tested on: Escherichia coli PFH12
Escherichia coli BL21 = tested on: Escherichia coli BL21
[8] = tested on: Salmonella enterica subsp. enterica serovar Enteritidis ATCC 13076
[9] = tested on: Salmonella typhimurium CCRC 12947
Escherichia coli PFL6 = tested on: Escherichia coli PFL6
[10] = tested on: Staphylococcus aureus ATCC 25923
[11] = tested on: Enterococcus faecalis ATCC 29212
Escherichia coli PFH1 = tested on: Escherichia coli PFH1
[12] = tested on: Pseudomonas aeruginosa ATCC 27853
Pseudomonas aeruginosa = tested on: Pseudomonas aeruginosa
Staphylococcus xylosus = tested on: Staphylococcus xylosus
[13] = tested on: Staphylococcus aureus CCRC 15211
[14] = tested on: Streptococcus pneumoniae ATCC 49619
Escherichia coli 170 = tested on: Escherichia coli 170
[15] = tested on: Klebsiella pneumoniae 913
[16] = tested on: Pseudomonas aeruginosa 4677
[17] = tested on: Enterobacter cloacae 6780
Acinetobacter baumannii = tested on: Acinetobacter baumannii
[18] = tested on: Escherichia coli ATCC 25922
Escherichia coli 4530 = tested on: Escherichia coli 4530
Salmonella typhimurium = tested on: Salmonella typhimurium
[19] = tested on: Klebsiella pneumoniae 1625
[20] = tested on: Enterobacter cloacae 2524
[21] = tested on: Listeria monocytogenes ATCC 19115
[22] = tested on: Klebsiella pneumoniae ATCC 13883
[23] = tested on: Staphylococcus aureus ATCC BAA-39
[24] = tested on: Staphylococcus aureus ATCC 43300
[25] = tested on: Acinetobacter baumannii B28-16
Escherichia coli E423-17 = tested on: Escherichia coli E423-17
[26] = tested on: Pseudomonas aeruginosa E411-17
[27] = tested on: Klebsiella pneumoniae E406-17
[28] = tested on: Staphylococcus aureus USA 300
Staphylococcus aureus = tested on: Staphylococcus aureus
Escherichia coli 363 = tested on: Escherichia coli 363
[29] = tested on: Candida albicans ATCC 37092
[30] = tested on: Staphylococcus aureus ATCC 29213

`CC[C@H](C)[C@H](N)C(=O)N[C@@H](CC(N)=O)C(=O)N[C@@H](CC(C)C)C(=O)N[C@@H](CCCCN)C(=O)N[C@@H](C)C(=O)N[C@H](C(=O)N[C@@H](C)C(=O)N[C@@H](C)C(=O)N[C@@H](CC(C)C)C(=O)N[C@@H](C)C(=O)N[C@@H](CCCCN)C(=O)N[C@@H](CCCCN)C(=O)N[C@@H](CC(C)C)C(=O)N[C@@H](Cc1ccccc1)C(N)=O)[C@@H](C)CC` [INLKAIAALAKKLF] was tested, and the MIC [1] was 8 µM (≈ 12.1 µg/mL), the MIC [2] was 21.1 µM (≈ 32 µg/mL) and the MIC [3] was 4 µM (≈ 6.05 µg/mL). For the same compound, the MIC [4] was 5.28 µM (≈ 7.99 µg/mL), the MIC (Salmonella enterica) was 10.6 µM (≈ 16 µg/mL) and the MIC (Escherichia coli JM109) was 5.28 µM (≈ 7.99 µg/mL). It also gave an MIC (Citrobacter koseri) of 2.64 µM (≈ 4 µg/mL), an MIC [5] of 10.6 µM (≈ 16 µg/mL) and an MIC [6] of 10.6 µM (≈ 16 µg/mL). It also gave an MIC (Escherichia coli PFH13) of 3.74 µM (≈ 5.65 µg/mL), an MIC [7] of 4 µM (≈ 6.05 µg/mL) and an MIC (Escherichia coli PFH12) of 3.74 µM (≈ 5.65 µg/mL). For the same compound, the MIC (Escherichia coli BL21) was 2.64 µM (≈ 4 µg/mL), the MIC [8] was 4 µM (≈ 6.05 µg/mL) and the MIC [9] was 21.1 µM (≈ 32 µg/mL). The MIC (Escherichia coli PFL6) was 5.28 µM (≈ 7.99 µg/mL), the MIC [10] was 4 µM (≈ 6.05 µg/mL) and the MIC [11] was at least 32 µM. The MIC (Escherichia coli PFH1) was 3.74 µM (≈ 5.65 µg/mL), the MIC [12] was at least 32 µM and the MIC (Pseudomonas aeruginosa) was 63.4 µM (≈ 95.9 µg/mL). For the same compound, the MIC (Staphylococcus xylosus) was 0.991 µM (≈ 1.5 µg/mL) and the MIC [13] was 21.1 µM (≈ 32 µg/mL).
With `CC[C@H](C)[C@H](NC(=O)CN)C(=O)N[C@@H](CC(C)C)C(=O)N[C@@H](CC(N)=O)C(=O)N[C@H](C(=O)N[C@H](C(=O)N[C@@H](CCCCN)C(=O)N[C@@H](CO)C(=O)N[C@H](C(=O)N[C@@H](C)C(=O)N[C@@H](CO)C(=O)N[C@@H](CCCCN)C(=O)N[C@@H](CC(C)C)C(=O)N[C@@H](CCCCN)C(=O)N[C@@H](CCCN=C(N)N)C(=O)N[C@@H](CCCCN)C(=O)N[C@@H](C)C(=O)N[C@@H](CCCCN)C(=O)O)[C@@H](C)CC)[C@@H](C)CC)[C@@H](C)O` [GILNTIKSIASKLKRKAK] the MIC [14] was at least 50 µM, the MIC (Escherichia coli 170) was 1.56 µM (≈ 3.07 µg/mL) and the MIC [15] was 6.25 µM (≈ 12.3 µg/mL). For the same compound, the MIC [16] was at least 50 µM, the MIC [17] was 3.12 µM (≈ 6.14 µg/mL) and the MIC (Acinetobacter baumannii) was 2.21 µM (≈ 4.35 µg/mL). It also gave an MIC [18] of 1.56 µM (≈ 3.07 µg/mL), an MIC (Escherichia coli 4530) of at least 50 µM and an MIC (Salmonella typhimurium) of 4.38 µM (≈ 8.63 µg/mL). The MIC [19] was 3.12 µM (≈ 6.14 µg/mL) and the MIC [20] was at least 50 µM.
In the case of `CC[C@H](C)[C@H](NC(=O)[C@H](CCCCN)NC(=O)[C@H](CCCN=C(N)N)NC(=O)[C@H](CC(C)C)NC(=O)[C@H](Cc1ccccc1)NC(=O)[C@H](CCCN=C(N)N)NC(=O)CNC(=O)[C@H](Cc1ccccc1)NC(=O)[C@H](CCCN=C(N)N)NC(=O)CNC(=O)[C@H](CCCN=C(N)N)NC(=O)[C@H](CCC(N)=O)NC(=O)[C@@H](NC(=O)[C@@H](N)CC(C)C)C(C)C)C(=O)N[C@@H](CCCN=C(N)N)C(=O)N[C@@H](CCCN=C(N)N)C(=O)N[C@@H](Cc1ccccc1)C(=O)N[C@@H](CCCN=C(N)N)C(=O)O` [LVQRGRFGRFLRKIRRFR], the MIC [21] is reported as 2 µM (≈ 4.72 µg/mL), the MIC [8] is reported as 2 µM (≈ 4.72 µg/mL) and the MIC [22] is reported as 2 µM (≈ 4.72 µg/mL). For the same compound, the MIC [10] was 2 µM (≈ 4.72 µg/mL), the MIC [18] was 4 µM and 5.66 µM and the MIC [23] was 2 µM and 2.83 µM. For the same compound, the MIC [24] was 2 µM (≈ 4.72 µg/mL).
`NC(=O)[C@H](CCCN=C(N)N)NC(=O)[C@H](Cc1c[nH]c2ccccc12)NC(=O)[C@H](Cc1c[nH]c2ccccc12)NC(=O)[C@H](CCCN=C(N)N)NC(=O)[C@H](Cc1c[nH]c2ccccc12)NC(=O)[C@H](Cc1c[nH]c2ccccc12)NC(=O)[C@H](CCCN=C(N)N)NC(=O)[C@@H](N)CCCN=C(N)N` [RRWWRWWR] gave an MIC [25] of at least 32 µM, an MIC (Escherichia coli E423-17) of 8 µM (≈ 11.1 µg/mL) and an MIC [26] of 8 µM (≈ 11.1 µg/mL). The MIC [10] was 1.8 µM (≈ 2.5 µg/mL), the MIC [12] was 3.6 µM (≈ 5 µg/mL) and the MIC [18] was 5.41 µM (≈ 7.49 µg/mL). The MIC [27] was at least 32 µM and the MIC [28] was 5.66 µM (≈ 7.84 µg/mL).
Work on `CC(C)C[C@H](NC(=O)[C@H](CCCN=C(N)N)NC(=O)[C@H](CCCN=C(N)N)NC(=O)[C@H](CC(C)C)NC(=O)[C@H](CC(C)C)NC(=O)[C@H](CCCN=C(N)N)NC(=O)[C@H](CCCN=C(N)N)NC(=O)[C@H](CC(C)C)NC(=O)[C@H](CC(C)C)NC(=O)[C@H](CCCN=C(N)N)NC(=O)[C@H](CCCN=C(N)N)NC(=O)[C@H](CC(C)C)NC(=O)[C@H](CCCN=C(N)N)NC(=O)[C@@H](N)CCCN=C(N)N)C(=O)N[C@@H](CCCN=C(N)N)C(=O)N[C@@H](CCCN=C(N)N)C(N)=O` [RRLRRLLRRLLRRLRR] yielded an MIC (Staphylococcus aureus) of 9 µM (≈ 20.3 µg/mL) and an MIC (Escherichia coli 363) of at least 50 µM.
With `CC[C@H](C)[C@H](NC(=O)[C@@H]1CCCN1C(=O)[C@H](CCCN=C(N)N)NC(=O)[C@@H]1CCCN1C(=O)CNC(=O)[C@@H]1CCCN1C(=O)[C@H](CCCN=C(N)N)NC(=O)[C@@H]1CCCN1C(=O)[C@H](Cc1ccccc1)NC(=O)[C@@H]1CCCN1C(=O)[C@H](CC(C)C)NC(=O)[C@@H]1CCCN1)C(=O)N1CCC[C@H]1C(=O)N[C@@H](CCCN=C(N)N)C(=O)N1CCC[C@H]1C(=O)O` [PLPFPRPGPRPIPRP] the MIC [29] was 30.5 µM (≈ 51.7 µg/mL), the MIC [30] was over 500 µM and the MIC [18] was over 500 µM.
